{
  "source": "ChEMBL document CHEMBL3045362",
  "about": "“Iodine catalyzed one-pot synthesis of chloro-substituted linear and angular indoloquinolines and in vitro antiproliferative activity study of different indoloquinolines” (Med Chem Res, 2013)",
  "key": {"MCF7": {"test_system": "MCF7", "assay": "Cytotoxicity against Homo sapiens (human) MCF-7 cells assessed as survival after 48 hr by MTT assay", "assay_type": "functional, cell-based", "details": "MCF7, 48 h"}, "HepG2": {"test_system": "HepG2", "assay": "Cytotoxicity against Homo sapiens (human) HepG2 cells assessed as survival after 48 hr by MTT assay", "assay_type": "functional, cell-based", "details": "HepG2, 48 h"}},
  "data": [
    {"smiles": "c1ccc2[nH]c3nc4ccccc4c-3cc2c1", "values": [
      {"measurement": "IC50", "setting": "MCF7", "value": "> 1000", "unit": "µg/mL"},
      {"measurement": "IC50", "setting": "HepG2", "value": "> 1000", "unit": "µg/mL"}
    ]},
    {"smiles": "c1ccc2c(c1)ccc1cc3c(nc12)[nH]c1ccccc13", "values": [
      {"measurement": "IC50", "setting": "MCF7", "value": 71.4, "unit": "µg/mL"},
      {"measurement": "IC50", "setting": "HepG2", "value": 98.1, "unit": "µg/mL"}
    ]},
    {"smiles": "Cc1cccc2cc3c(nc12)[nH]c1ccccc13", "values": [
      {"measurement": "IC50", "setting": "MCF7", "value": 5.5, "unit": "µg/mL"},
      {"measurement": "IC50", "setting": "HepG2", "value": 5.4, "unit": "µg/mL"}
    ]},
    {"smiles": "Brc1ccc2cc3c(nc2c1)[nH]c1ccccc13", "values": [
      {"measurement": "IC50", "setting": "MCF7", "value": 42.8, "unit": "µg/mL"},
      {"measurement": "IC50", "setting": "HepG2", "value": 34, "unit": "µg/mL"}
    ]}
  ]
}
